How the values were obtained:
HER2 [1] = target: T1, HER2 (Homo sapiens, UniProt P04626); assay: inhibition of HER2 in vitro; format: biochemical
From the text: (§1) Tucatinib inhibits the HER2-driven mitogen-activated protein and PI3 kinase signaling pathways, resulting in inhibition of tumor cell proliferation, survival, and metastasis.

HER2 [2] = target: T1, HER2; assay: HER2 internalization assay using Trastuzumab-AF488; format: cell-based; details: tucatinib 100 nM, SK-BR-3 cells, imaged at time points spanning 72 hours
Protocol: (§2) To probe the dynamics of HER2 at the cell surface upon binding to antibody therapeutics in the presence or absence of tucatinib (100 nM), SK-BR-3 cells were incubated with fluorescently-labeled trastuzumab (Trastuzumab-AF488) to mark HER2 at the cell surface. Excess antibody was washed out. Cells were imaged at time points spanning 72 hours to observe internalization of surface-bound antibody. […] Concurrent experiments were conducted with trastuzumab labeled with QF (Trastuzumab-QF) […], a quenched fluorophore which fluoresces upon lysosomal processing and can serve as a proxy for antibody catabolism.

HER2 [3] = target: T1, HER2; assay: HER2 internalization assay using Trastuzumab-QF (lysosomal processing); format: cell-based; details: tucatinib 100 nM; SK-BR-3 cells; Trastuzumab-QF in the presence of chloroquine
Protocol: as §2

HER2 [4] = target: T1, HER2; assay: cellular signaling assays, selectivity for HER2 compared to EGFR; format: cell-based; parameters: four different HER2-amplified breast cancer cell lines (BT-474, SK-BR-3, HCC-1419, and UACC-893); endogenous in cells; host or cells: BT-474, SK-BR-3, HCC-1419, UACC-893
From the text: as §1

HER2 [5] = target: T1, HER2; assay: HER2 total protein levels by western blot analysis (WES system), normalized against GAPDH; format: cell-based; parameters: four different HER2-amplified breast cancer cell lines (BT-474, SK-BR-3, HCC-1419, and UACC-893); endogenous in cells; host or cells: BT-474, SK-BR-3, HCC-1419, UACC-893; details: 30 nM or 100 nM tucatinib, 24 hours and 48 hours; BT-474, SK-BR-3, HCC-1419 and UACC-893 HER2-amplified breast cancer cell lines
Protocol: (§3) Protein lysates were generated from cells harvested at each time point, HER2 total protein levels were determined by western blot analysis using a WES system, and normalized against GAPDH levels as a loading control. As shown in FIG. 1A-1D, in all four cell lines tested, HER2 total protein levels increased after treatment with tucatinib relative to untreated cell lines. Total HER2 protein levels are shown as a percentage of the total HER2 protein levels of untreated cells. Plasma membrane-bound levels of HER2 were determined by quantitative FACS (qFACS) analysis after exclusion of dead cells. As shown in FIG. 1E-1H, treatment with either 30 nM or 100 nM increased plasma membrane-bound HER2 protein levels in all four cell lines relative to untreated cell lines. Plasma membrane-bound HER2 protein levels are shown as a percentage of the plasma membrane-bound HER2 protein levels of untreated cells.

HER2 [6] = target: T1, HER2; assay: plasma membrane-bound HER2 levels by quantitative FACS (qFACS); format: cell-based; parameters: four different HER2-amplified breast cancer cell lines (BT-474, SK-BR-3, HCC-1419, and UACC-893); endogenous in cells; host or cells: BT-474, SK-BR-3, HCC-1419, UACC-893; details: 30 nM or 100 nM tucatinib, 24 hours and 48 hours; BT-474, SK-BR-3, HCC-1419 and UACC-893 HER2-amplified breast cancer cell lines
Protocol: as §3

T1 sequence (P04626 23-1255): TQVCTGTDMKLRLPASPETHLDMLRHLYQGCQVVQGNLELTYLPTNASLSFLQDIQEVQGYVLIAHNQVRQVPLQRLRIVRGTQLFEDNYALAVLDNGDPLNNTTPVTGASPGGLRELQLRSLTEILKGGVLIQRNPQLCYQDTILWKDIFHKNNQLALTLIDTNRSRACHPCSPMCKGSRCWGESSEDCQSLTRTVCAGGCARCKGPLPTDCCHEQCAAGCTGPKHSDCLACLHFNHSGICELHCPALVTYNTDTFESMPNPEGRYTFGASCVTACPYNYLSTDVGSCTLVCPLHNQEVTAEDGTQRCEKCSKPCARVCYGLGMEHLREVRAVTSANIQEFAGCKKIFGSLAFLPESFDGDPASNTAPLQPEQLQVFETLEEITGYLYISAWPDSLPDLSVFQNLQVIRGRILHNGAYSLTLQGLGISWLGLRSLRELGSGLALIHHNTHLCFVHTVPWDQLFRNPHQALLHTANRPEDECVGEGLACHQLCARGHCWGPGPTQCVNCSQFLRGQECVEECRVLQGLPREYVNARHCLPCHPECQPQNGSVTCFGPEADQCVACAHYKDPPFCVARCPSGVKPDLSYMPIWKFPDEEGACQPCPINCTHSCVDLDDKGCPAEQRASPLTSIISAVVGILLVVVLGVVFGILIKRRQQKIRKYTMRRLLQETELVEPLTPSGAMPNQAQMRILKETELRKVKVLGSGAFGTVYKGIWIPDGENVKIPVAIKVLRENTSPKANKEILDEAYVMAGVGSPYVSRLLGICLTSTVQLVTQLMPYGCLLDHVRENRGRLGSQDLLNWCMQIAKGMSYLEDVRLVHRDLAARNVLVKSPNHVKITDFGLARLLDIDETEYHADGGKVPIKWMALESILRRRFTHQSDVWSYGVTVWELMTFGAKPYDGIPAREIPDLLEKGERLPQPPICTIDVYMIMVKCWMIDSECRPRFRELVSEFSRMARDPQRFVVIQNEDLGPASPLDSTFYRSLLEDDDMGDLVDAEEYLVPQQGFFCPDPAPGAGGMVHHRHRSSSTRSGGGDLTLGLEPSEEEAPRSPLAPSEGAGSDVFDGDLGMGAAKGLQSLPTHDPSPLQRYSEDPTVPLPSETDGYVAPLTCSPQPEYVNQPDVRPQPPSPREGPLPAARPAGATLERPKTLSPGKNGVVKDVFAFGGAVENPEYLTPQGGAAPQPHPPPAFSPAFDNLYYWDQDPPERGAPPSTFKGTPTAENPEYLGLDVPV

- inhibition of HER2 in vitro (HER2 [1]): potent inhibitor of HER2 in vitro
- dwell time of HER2 at the cell surface (HER2 [2]): increased
- selectivity for HER2 compared to the closely related kinase EGFR (HER2 [4]): > 1000 fold
- HER2 total protein levels relative to untreated cell lines (HER2 [5]): increased
- plasma membrane-bound HER2 protein levels relative to untreated cell lines (HER2 [6]): increased
SMILES: Cc1cc(Nc2ncnc3ccc(NC4=NC(C)(C)CO4)cc23)ccc1Oc1ccn2ncnc2c1 [tucatinib, N^4-(4-([1,2,4]triazolo[1,5-a]pyridin-7-yloxy)-3-methylphenyl)-N^6-(4,4-dimethyl-4,5-dihydrooxazol-2-yl) quinazoline-4,6-diamine]
- internalization and lysosomal processing of HER2-bound antibody (HER2 [3]): rapid internalization and lysosomal processing

From patent US20260199346A1, “METHODS OF TREATING SOLID TUMORS DRIVEN BY HER2 ALTERATIONS WITH TUCATINIB IN COMBINATION WITH AN ANTI-HER2 ANTIBODY” (Seagen Inc., priority 2020, published 2026)
